In one test the target is recombinant human MMP16 (Homo sapiens, UniProt P51512). In words: MMP inhibition on isolated enzymes, fluorigenic peptide substrate. Format: biochemical. The text has this:
(§1) The matrix metalloproteinase (MMP) inhibitory activity has been evaluated in a classical biochemical assay using fluorigenic peptide substrates. Briefly, a peptide bearing 1) a fluorescent group and 2) a quenching group bound to another amino acid of the peptide is submitted to the proteolytic action of an MMP. The cleavage of peptide bounds due to the MMP results in a dequenching of the fluorescent group. There is a direct relationship between the observed fluorescence and the activity of the enzyme. The MMP inhibiting activity of a given substance can then be assessed using this assay.
(§2) The compounds of the present invention have been assayed using this assay design with recombinant human MMP2, MMP14 and MMP16 and the peptide ZGly-Gly-ArgAMC, which is a well-known, commercially available substrate of MMPs.
(§3) The following IC50 values (inhibitor concentration required to inhibit 50% of the enzyme) have been obtained with the compounds prepared according to examples 2 to 5 and compared to a product of the state of the art, better known as Ro 28-2653. Ro 28-2653 is included in claim 1 of WO 01/25217.

The target in the next test is recombinant human MMP14 (Homo sapiens, UniProt P50281). Described as above. Format: biochemical.
From the text: as §1, §2, §3

A further test addresses T1, recombinant human MMP2 (Homo sapiens, UniProt P08253).
T1 sequence (P08253 110-660): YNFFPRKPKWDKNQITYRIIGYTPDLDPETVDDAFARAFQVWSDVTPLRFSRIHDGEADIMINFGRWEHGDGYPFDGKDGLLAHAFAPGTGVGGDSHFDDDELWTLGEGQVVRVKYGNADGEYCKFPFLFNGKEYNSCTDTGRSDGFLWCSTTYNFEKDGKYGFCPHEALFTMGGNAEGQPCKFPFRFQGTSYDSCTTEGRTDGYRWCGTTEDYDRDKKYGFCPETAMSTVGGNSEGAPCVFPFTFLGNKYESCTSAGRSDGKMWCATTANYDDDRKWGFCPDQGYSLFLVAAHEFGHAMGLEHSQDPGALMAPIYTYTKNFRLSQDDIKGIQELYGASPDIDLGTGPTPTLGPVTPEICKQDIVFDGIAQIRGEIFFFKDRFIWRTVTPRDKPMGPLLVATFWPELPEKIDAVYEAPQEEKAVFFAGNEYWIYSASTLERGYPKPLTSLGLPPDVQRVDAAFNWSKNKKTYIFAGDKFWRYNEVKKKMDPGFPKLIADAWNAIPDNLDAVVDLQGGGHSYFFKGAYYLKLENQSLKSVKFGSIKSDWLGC
The test is described as above. Format: biochemical.
From the text: as §1, §2, §3

Test [1] has as its system capillary vessel outgrowth from aorta rings. In words: aorta ring angiogenesis assay. It counts as cell-based. Conditions: 10 μM in culture medium, rat aorta rings in collagen, 6-9 days. Here is the method: Compound 5-(1,1′-biphenyl)-4-yl-5-{4-[4-(2,5-dioxopyrrolidin-1-yl)phenyl]piperazin-1-yl}pyrimidine-2,4,6(1H,3H,5H)-trione prepared according to example 4 has also been assayed in an aorta ring angiogenesis assay.
Briefly, in the aorta ring assay, fresh slices (ring) of aorta dissected from rat were embedded in collagen1 and then cultivated in Petri dishes after addition of culture medium (n=6). […] The effect of the compound of example 4 (10 μM) on angiogenesis was evaluated by its potency to stimulate or to inhibit the outgrowth of the capillary vessels when it was added to the culture medium (n=6).

Like-named read-outs stand apart in the source and are kept apart here.

Chain of recombinant human MMP16 (P51512 120-607): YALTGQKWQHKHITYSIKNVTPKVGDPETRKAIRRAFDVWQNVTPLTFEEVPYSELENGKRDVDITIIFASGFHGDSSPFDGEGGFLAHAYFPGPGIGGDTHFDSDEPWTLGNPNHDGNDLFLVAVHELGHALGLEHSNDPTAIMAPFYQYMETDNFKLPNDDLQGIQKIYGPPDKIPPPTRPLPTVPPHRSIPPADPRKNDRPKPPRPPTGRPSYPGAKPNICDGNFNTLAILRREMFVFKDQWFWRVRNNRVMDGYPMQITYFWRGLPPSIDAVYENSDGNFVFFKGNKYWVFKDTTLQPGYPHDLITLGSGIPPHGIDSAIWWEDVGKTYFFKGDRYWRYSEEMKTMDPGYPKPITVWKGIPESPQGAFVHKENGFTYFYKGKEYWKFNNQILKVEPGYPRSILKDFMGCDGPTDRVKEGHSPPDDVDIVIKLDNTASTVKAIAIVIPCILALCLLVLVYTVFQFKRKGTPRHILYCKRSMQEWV

Turning to `O=C1NC(=O)C(c2ccc(-c3ccccc3)cc2)(N2CCN(c3ccc(N4C(=O)CCC4=O)cc3)CC2)C(=O)N1` [example 4, 5-(1,1′-Biphenyl)-4-yl-5-{4-[4-(2,5-dioxopyrrolidin-1-yl)phenyl]piperazin-1-yl}pyrimidine-2,4,6(1H,3H,5H)-trione], the IC50 came to 21 nM on recombinant human MMP16, 13 nM on recombinant human MMP14 and 75 nM at recombinant human MMP2. The “effect on capillary vessel outgrowth (angiogenesis)” value in test [1] is reported as “severely inhibit the capillary vessel outgrowth”.
As for `O=C1NC(=O)C(c2ccc(-c3ccccc3)cc2)(N2CCN(c3ccc([N+](=O)[O-])cc3)CC2)C(=O)N1` [Ro 28-2653, reference compound], the IC50 amounted to 91 nM on recombinant human MMP16, 96 nM at recombinant human MMP14 and 246 nM on recombinant human MMP2.
The matching figures for `O=C(O)CCCC(=O)Nc1ccc(N2CCN(C3(c4ccc(-c5ccccc5)cc4)C(=O)NC(=O)NC3=O)CC2)cc1` [example 3, 4-{4-[4-(5-(1,1′-Biphenyl)-4-yl-2,4,6-trioxoperhydropyrimidin-5-yl)piperazin-1-yl]-phenylcarbamoyl}butyric acid]: 49 nM, 26 nM and 98 nM.
The matching figures for `O=C(O)CCC(=O)Nc1ccc(N2CCN(C3(c4ccc(-c5ccccc5)cc4)C(=O)NC(=O)NC3=O)CC2)cc1` [example 2, N-{4-[4-(5-(1,1′-Biphenyl)-4-yl-2,4,6-trioxoperhydropyrimidin-5-yl)piperazin-1-yl]-phenyl}succinamic acid]: 39 nM, 29 nM and 110 nM.
Turning to `O=C1CCC(=O)N(c2ccc(N3CCN(C4(c5ccc(-c6ccccc6)cc5)C(=O)NC(=O)NC4=O)CC3)cc2)C1` [example 5, 5-(1,1′-Biphenyl)-4-yl-5-{4-[4-(2,5-dioxopiperidin-1-yl)phenyl]piperazin-1-yl}pyrimidine-2,4,6(1H,3H,5H)-trione], the IC50 was determined as 20 nM at recombinant human MMP16 (recombinant human MMP16, substrate ZGly-Gly-ArgAMC, read-out: IC50 (nM) values on isolated enzymes MMP-16); 23 nM on recombinant human MMP14 (recombinant human MMP14, substrate ZGly-Gly-ArgAMC, read-out: IC50 (nM) values on isolated enzymes MMP-14); 93 nM at recombinant human MMP2 (recombinant human MMP2, substrate ZGly-Gly-ArgAMC, read-out: IC50 (nM) values on isolated enzymes MMP-2).

For orientation: IC50 means the point on the concentration scale where inhibition reaches its midpoint.

(Values after patent US20080096897A1, “5-(1,1'Biphenyl)-4-Yl-5-(4-(4-Aminoacylphenyl)-Piperazin)-1-Yl-Pyrimidine-2,4,6,-Trione Derivatives, As Inhibitors Of Zinc Metallondopeptidases, Their Preparation And Use” (priority 2004, published 2008).)
